SMILES strings stand for the structures.

Here are results for two compounds from US10844349B2 (Albumedix Ltd., priority 2011, dated 2020).

Data set [1] in a line: Microtitre plate insoluble aggregate test: time for A350 to increase by 0.2 AU at 65° C. As to conditions: cation chlorides 50-500 mM, albumin 10 mg/mL, pH 6.43, 65° C. The class given is physicochemical. On the procedure: The microtitre plate was gently rocked to mix the contents of each well, centrifuged to remove any air bubbles and placed in a Biotek Synergy Mx (Potton, UK) plate reader that had been pre-equilibrated and controlled at 65° C. The plate was then read at 350 nm every minute over a total incubation time of 8 hours. Gen5 software (Biotek software for the plate reader version 2.00.18) was used to calculate the time taken for the A350 nm absorbance to increase by 0.2 adsorption units above a base line. The base line was calculated from the mean of the first 5 data points.

The subject of data set [2] is Human embryonic stem cells (cell lines SAl21 and SA181). In words: Effect of octanoate on stem cell culture (attachment, growth, undifferentiated state over 5 passages; text summary for both cell lines). The class given is cell-based. As to conditions: 8 mM octanoate in 100 g/L albumin. As for the experimental part: The effect of octanoate on stem cell culture was carried out by a contract research organization: Cellartis AB (Gothenburg, Sweden). […] The cell growth over the 5 passages was assessed by monitoring the cell doubling times during consecutive passages in cell production. The doubling times of cultures should be within a range of 28-40 hours, and can be seen as a trend indicator.

In the case of `[Cl-].[Cl-].[Mg+2]` [MgCl2], the “albumin stability (time for A350 to increase by 0.2 AU)” value in data set [1] is recorded as “very good”.

Regarding `CCCCCCCC(=O)O` [octanoate], the “toxicity to stem cells” value in data set [2] is reported as “toxic to stem cells”.
